Data published in article PMC6831561, “Pharmacological and Behavioral Effects of the Synthetic Cannabinoid AKB48 in Rats” (Frontiers in Neuroscience, 2019).

Key:
rats [1] = experiment: Overall tactile response (vibrissae, pinna, corneal reflexes); type: in vivo
Experimental: Tactile responses were verified through vibrissae, pinna, and corneal reflexes ([Marti et al., 2019]), and data were expressed as the sum of these parameters. The vibrissae reflex was evaluated by touching the vibrissae (right and left) with a thin hypodermic needle once per side, giving a value of 1 if there was a reflex (turning of the head to the side of touch or vibrissae movement) or 0 if not present (overall score 2). Evaluation of the vibrissae reflex was measured at 0, 10, 30, 60, 120, and 180 min post-injection. The pinna reflex was assessed by touching the pavilions (left and right) with a thin hypodermic needle, the interior pavilions first. This test was repeated twice per side, giving a value of 1 if there was a reflex and 0 if not present (overall score 4). Evaluation of the pinna reflex was measured at 0, 10, 30, 60, 120, and 180 min post-injection. The corneal reflex was assessed by gently touching the cornea with a thin hypodermic needle and evaluating the response, assigning a value of 1 if the rat moved only its head, 2 if it only closed its eyelid, and 3 if it closed its lid and moved its head. The procedure was conducted bilaterally (overall score 6) and was measured at 0, 10, 30, 60, 120, and 180 min post-injection.

rats [2] = experiment: Bar test (catalepsy); type: in vivo
Experimental: In the bar test, the rat’s forelimbs were placed on a bar made of plastic (height 6 cm). The time spent on the bar was measured (immobility cut-off: 20 sec), and akinesia was calculated as the total time spent on the bar after three consecutive trials (total maximal time of catalepsy: 60 s; [De Luca et al., 2015]; [Canazza et al., 2016]). The bar test was performed at 0, 20, 40, 70, 140, and 195 min post-injection.

rats [3] = experiment: Core and surface body temperature; type: in vivo
Experimental: To better assess the effects of the ligands on thermoregulation, we measured both changes in the core (rectal) and surface (ventral fur) temperature. The core temperature was evaluated by a probe (1 mm diameter) that was gently inserted, after lubrication with liquid Vaseline, into the rectum of the rat (to about 2 cm) and left in position until the stabilization of the temperature (about 10 sec; [De Luca et al., 2015]; [Vigolo et al., 2015]). The probe was connected to a Cole Parmer digital thermometer, model 8402. The surface temperature was measured by a Microlife FR 1DZ1 digital infrared thermometer, placed 1 cm from the surface of the abdomen of the rat ([Vigolo et al., 2015]). Core and surface body temperatures were measured at 0, 15, 35, 65, 125, and 190 min.

hepatocyte model = conditions: ref Gandhi et al., 2013; cited from earlier work
rats [4] = experiment: Cardiorespiratory analysis (heart rate, breath rate, SpO2); type: in vivo
From the text: During the experiment, the rat was allowed to freely move in a cage (40 × 40 × 30 cm) with no access to food and water while being monitored by the sensor collar through MouseOx Plus (STARR Life Sciences® Corp., Oakmont, PA, United States) software. In the first hour of acclimation, a fake collar similar to the real one used in the test but with no sensor was used to minimize the potential stress during the experiment. Then, the real collar (with sensor) was replaced, and baseline parameters were monitored for 60 min.

extracellular DA levels = experiment: In vivo brain microdialysis of DA (NAc shell, NAc core, mPFC); parameters: species or system rats
From the text: Male Sprague-Dawley rats were anaesthetized with isoflurane gas, and maintained under anaesthesia using a breathing tube under a scavenging system while placed in a stereotaxic apparatus and implanted with vertical dialysis probes (1.5 or 3 mm dialyzing portion for NAc or mPFC, respectively) in the NAc shell (A + 2.2, L + 1.0 from bregma, V-7.8 from dura) or core (A + 1.4; L + 1.6 from bregma; V-7.6 from dura) or in the mPFC (A + 3.7, L + 0.8 from bregma, V-5.0 from dura), according to the rat brain atlas ([Paxinos and Watson, 1998]).
On the day following surgery, probes were perfused with Ringer’s solution (147 mM NaCl, 4 mM KCl, 2.2 mM CaCl2) at a constant rate of 1 μL/min. Dialyzate samples (10 μL) were injected into an HPLC equipped with a reverse-phase column (C8 3.5 μm, Waters, United States) and a coulometric detector (ESA, Coulochem II) to quantify DA. The first electrode of the detector was set at + 130 mV (oxidation), and the second at −175 mV (reduction). The composition of the mobile phase was: 50 mM NaH2PO4, 0.1 mM Na2-EDTA, 0.5 mM n-octyl sodium sulfate, 15% (v/v) methanol, pH 5.5. The sensitivity of the assay for DA was 5 fmol/sample. At the end of the experiment, animals were sacrificed and their brains removed and stored in formalin (8%) for histological examination to verify the correct placement of the microdialysis probe.

rats [5] = experiment: Open field test and gross behavior test; type: in vivo
Experimental: An open field, used to measure locomotor activity, consisted of a wooden chamber (45 cm high) with a circular base (75 cm diameter). The floor was divided into 12 sections of similar area by two concentric circles and radial segments. The apparatus was placed in a sound-proof room, illuminated by a white 80 W lamp placed 200 cm over the center of the arena. Rat behavior in the test sessions was videotaped, analyzed, and scored. The following parameters were measured: time spent in the central or peripheral area, locomotor activity, and number of rearing reactions. Each of the behavioral parameters was scored manually by a tally counting method. The behavioral parameters scored were head twitches, wet dog shakes, grooming, licking, number of defecations, and tail rigidity. In the open field test, 21 male Sprague-Dawley rats were used and divided into three groups (n = 7 per group) and received different doses of AKB48 according to the CPP protocol. After treatment, the animals were leaved undisturbed for 10 min in the arena and then observed for 30 min.

[6] = AM251 1 mg/kg i.p. before AKB48 3 mg/kg i.p.
[7] = AKB48 highest dose (3 mg/kg), after 60 min from injection
[8] = AKB48 0.1 and 0.5 mg/kg i.p., both doses

**Q.** What does the source list for `Cc1c(C(=O)NN2CCCCC2)nn(-c2ccc(Cl)cc2Cl)c1-c1ccc(I)cc1` [AM251, 1-(2,4-dichlorophenyl)-5-(4-iodophenyl)-4-methyl-N-(piperidin-1-yl)-1H-pyrazole-3-carboxamide, reference compound]?
**A.** response to AM251 alone in the tactile response section (rats [1]; AM251 1 mg/kg i.p. alone (data not shown)): did not alter; inhibition of overall tactile response induced by AKB48, after AM251 pre-treatment (rats [1]; [6]): prevented; catalepsy, AM251 alone (rats [2]; AM251 1 mg/kg i.p. alone): did not induce catalepsy; AKB48 effect on time spent on the bar, after AM251 pre-treatment (rats [2]; AM251 1 mg/kg i.p. before AKB48 3 mg/kg): prevented; response to AM251 alone in the body temperature section (rats [3]; AM251 1 mg/kg i.p. alone): did not alter; hypothermia induced by AKB48, after AM251 pre-treatment (rats [3]; [6]): prevented

**Q.** Which “reduction of overall tactile response” value (rats [1]; AKB48, only at the highest dose (3 mg/kg i.p.)) does the source give for `CCCCCn1nc(C(=O)NC23CC4CC(CC(C4)C2)C3)c2ccccc21` [AKB48, N-(1-adamantyl)-1-pentyl-1H-indazole-3-carboxamide] here?
**A.** Its value is ~23%.

**Q.** And the “persistence of the reduction of tactile response” value (rats [1]; AKB48 highest dose (3 mg/kg i.p.))?
**A.** Its value is “up to 60 min”.

**Q.** And the “number of major metabolites” value (hepatocyte model)?
**A.** The value was 11.

**Q.** And the “duration of the heart rate decrease” value (rats [4]; AKB48 3.0 mg/kg i.p.)?
**A.** The value was “about 90 min”.

**Q.** And the “time at which the heart rate effect disappeared” value (rats [4]; AKB48 3.0 mg/kg i.p.)?
**A.** Its value is 180 min.

**Q.** And the “reduction of heart rate” value (rats [4]; AKB48 3.0 mg/kg i.p., after 30 min from injection)?
**A.** Its value is ~36%.

**Q.** And the “time at which the SpO2 effect disappeared” value (rats [4]; AKB48 highest dose (3 mg/kg))?
**A.** The value was 120 min.

**Q.** And the “time at which the breath rate effect disappeared” value (rats [4]; AKB48 highest dose (3 mg/kg))?
**A.** Its value is 120 min.

**Q.** And the “reduction of SpO2 saturation” value (rats [4]; [7])?
**A.** The value was ~10%.

**Q.** What about the “reduction of breath rate” value (rats [4]; [7]) of the same compound?
**A.** Its value is ~30%.

**Q.** And the “time spent on the bar” value (rats [2]; AKB48 0.1–3 mg/kg i.p.)?
**A.** The value was “slightly increased”.

**Q.** What about the “time at which the core temperature effect was evident” value (rats [3]; AKB48 3 mg/kg i.p.) of the same compound?
**A.** Its value is 65 min.

**Q.** And the surface body temperature (rats [3]; AKB48 0.1–3 mg/kg i.p.)?
**A.** Its surface body temperature is “did not affect”.

**Q.** What about the core body temperature (rats [3]; AKB48, only at 3 mg/kg i.p.) of the same compound?
**A.** Its core body temperature is “reduced”.

**Q.** What about the “DA levels in the NAc shell” value (extracellular DA levels; AKB48 0.25 mg/kg i.p.) of the same compound?
**A.** Its value is “increased”.

**Q.** And the “max increase of DA in the NAc shell” value (extracellular DA levels; AKB48 0.25 mg/kg ip, at 20 and 40 min)?
**A.** The value was “about 40%”.

**Q.** And the “DA levels in the mPFC” value (extracellular DA levels; AKB48 0.125 and 0.25 mg/kg i.p.)?
**A.** The value was “No significant effects”.

**Q.** And the “DA levels in the NAc shell” value (extracellular DA levels; AKB48 lower or higher doses (0.125 and 0.5 mg/kg i.p.))?
**A.** Its value is “ineffective”.

**Q.** And the “distance traveled in the central area” value (rats [5]; AKB48 0.5 mg/kg)?
**A.** The value was “reduced”.

**Q.** What about the “time spent in the central area” value (rats [5]; AKB48 0.5 mg/kg) of the same compound?
**A.** Its value is “reduced”.

**Q.** What about the total distance traveled (rats [5]; AKB48 0.5 mg/kg) of the same compound?
**A.** Its total distance traveled is “reduced”.

**Q.** And the amount of defecation (rats [5]; AKB48 0.1 and 0.5 mg/kg i.p.)?
**A.** The amount of defecation was “did not affect”.

**Q.** And the grooming (rats [5]; AKB48 0.1 and 0.5 mg/kg i.p.)?
**A.** The grooming was “did not affect”.

**Q.** What about the head shaking (rats [5]; AKB48 0.1 and 0.5 mg/kg i.p.) of the same compound?
**A.** Its head shaking is “did not affect”.

**Q.** What about the rearing (rats [5]; AKB48 0.1 and 0.5 mg/kg i.p.) of the same compound?
**A.** The rearing was “no effect”.

**Q.** What about the spontaneous locomotor activity (rats [5]; AKB48 0.1 and 0.5 mg/kg i.p.) of the same compound?
**A.** The spontaneous locomotor activity was “reduced”.

**Q.** What about the wet dog shaking (rats [5]; AKB48 0.1 and 0.5 mg/kg i.p.) of the same compound?
**A.** Its wet dog shaking is “did not affect”.

**Q.** What about the licking (rats [5]; [8]) of the same compound?
**A.** The licking was “decrease”.

**Q.** And the tail rigidity (rats [5]; [8])?
**A.** Its tail rigidity is “significant increase”.
